Holding throughout (experiment): DTP human tumour cell line panel, 48 h
In assay [1] the test system is A498 renal.
In assay [2] the test system is ACHN renal.
Assay [3] has as its system EKVX NSCLC.
Assay [4] relates to LOX IMVI melanoma.
Assay [5] deals with M14 melanoma.
Assay [6] has as its system MALME-3M melanoma.
Assay [7] concerns MCF7 breast.
For assay [8], the system named is NCI/ADR-RES ovarian.
For assay [9], the system named is OVCAR-8 ovarian.
Assay [10] concerns RPMI-8226 leukemia.
Assay [11] relates to SF-539 CNS.
Assay [12] has as its system T-47D breast.
Assay [13] relates to UACC-257 melanoma.
For assay [14], the system named is BT-549 breast.

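Protocol summary: plate cells (96-well), add compound at 5 concentrations, incubate 48 h, interpolate endpoints linearly. TGI: total growth inhibition.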 Where a SMILES comes first, the peptide text is derived from it. The star is where a group is joined. Boc = CC(C)(C)OC(=O)*

Consider `CCC(C)C1=C(O)[N+]2([O-])Oc3ccc(-c4c(O)c(O)c(-c5ccc(O)cc5)c(OC(C)=O)c4OC(C)=O)cc3OC2(C(C)CC)C(=O)N1O` (stereo not given), for which the TGI in assay [1], in [2], in [3], in assay [4], in [5] and in assay [6] was > 50 µM throughout. Moreover, the TGI in assay [7], in assay [8], in [9], in [10], in assay [11] and in assay [12] was > 50 µM in each case. The TGI in assay [13] is > 50 µM.
As for `O=S(=O)(O)c1cc(S(=O)(=O)O)c2c(N=Nc3ccccc3)c(O)ccc2c1`, the total growth inhibition concentration (TGI) in [1], in assay [14], in [4], in assay [5], in [8] and in assay [9] was > 100 µM in each case. Besides, the TGI in assay [10], in assay [12] and in [13] was > 100 µM in each case.
As to `N#CCN(Cc1ccccc1)[C@H]1CCC[C@]1(O)/C=C/c1ccc2c(c1)OCO2`, the TGI is > 100 µM in [1]; > 100 µM in assay [2]; > 100 µM in assay [3]; 29.4 µM in assay [4]; 30.2 µM in [5]; 32.1 µM in [6]. In addition, the TGI in assay [7] came to 39.6 µM; in [8] it was 42 µM; in assay [9], 32.5 µM; in [10], 46 µM; in [11], 88.8 µM; in assay [12], 46.4 µM. Besides, in [13], the TGI stood at 58 µM.
Consider `NS(=O)(=O)c1ccc(NC(=S)/N=C/c2c(O)c3ccccc3[nH]c2=O)cc1`, for which the TGI in assay [2], in assay [14], in [3], in assay [4], in assay [5] and in [7] was > 100 µM in each case. Also, the total growth inhibition concentration (TGI) in [8], in assay [9], in [10], in assay [11], in assay [12] and in [13] was > 100 µM in each case.
`CCCCn1c(C)c(C)c2c1NN=C(C#N)S2(=O)=O`: the TGI in assay [2], in assay [14], in assay [3], in assay [4], in assay [5] and in assay [6] was > 100 µM throughout. In addition, the TGI in assay [7], in [8], in assay [9], in assay [10], in [11] and in assay [12] was > 100 µM throughout. The TGI in assay [13] was > 100 µM.
Consider `O=S(=O)(O)c1cccc2ccc(O)c(N=Nc3ccc(S(=O)(=O)c4ccc(N=Nc5c(O)ccc6cccc(S(=O)(=O)O)c56)cc4)cc3)c12`, for which the TGI in assay [2], in assay [14], in [3], in assay [5], in [6] and in assay [8] was > 100 µM in each case. Moreover, the TGI in assay [9], in [10], in [12] and in assay [13] was > 100 µM throughout.
For the molecule `O=c1oc2ccccc2cc1-c1nc2ccccc2c(=O)[nH]1`, the TGI in [2], in assay [14], in assay [3], in assay [4], in assay [5] and in [6] was > 100 µM throughout. Also, the TGI in assay [7], in assay [8], in [9], in assay [10], in assay [11] and in [12] was > 100 µM each time. In assay [13], the concentration for total growth inhibition (TGI) is > 100 µM.
Turning to `COC(=O)C(Cc1c[nH]c2ccccc12)NC(=O)C(Cc1c[nH]c2ccccc12)NC(=O)C(Cc1c[nH]c2ccccc12)NC(=O)C(Cc1c[nH]c2ccccc12)NC(=O)C(Cc1c[nH]c2ccccc12)NC(=O)OC(C)(C)C` (stereo not given) (Boc-WWWWW-OMe; configuration not given here), the TGI in assay [2], in assay [14], in [4], in [5], in assay [6] and in assay [7] was > 100 µM throughout. Further, the TGI in [9], in assay [10], in [12] and in [13] was > 100 µM in each case.
On to `COc1ccc(OC)c2sc(N3C(=O)/C(=C/c4ccc(N(C)C)cc4)N=C3c3ccccc3)nc12`, for which the total growth inhibition concentration (TGI) in assay [1], in [2], in assay [14], in assay [3], in [4] and in assay [5] was > 100 µM throughout. In addition, the TGI in assay [7] was 63.4 µM; in [8], > 100 µM; in assay [9], > 100 µM; in assay [10] it was > 100 µM; in assay [11], > 100 µM; in assay [12], > 100 µM. Moreover, in [13], the concentration for total growth inhibition (TGI) is > 100 µM.
`COc1ccc(-c2c(C#N)c(N)n(C3OCC(O)C(O)C3O)c(=S)c2C#N)cc1` (stereo not given): the TGI in [1], in [2], in [14], in assay [4], in assay [5] and in [6] was > 100 µM each time. For the same molecule, the TGI in assay [7], in [8], in assay [9], in assay [10], in assay [11] and in assay [12] was > 100 µM in each case.
Turning to `C=CCN1C(=O)/C(=C/c2ccccc2)N=C1SC/C=C/C`, the TGI in assay [1], in [2], in [14], in assay [4], in [5] and in assay [7] was > 100 µM each time. Besides, the TGI in assay [8] is > 100 µM; in [9], > 100 µM; in assay [10], 49 µM; in assay [11] it was > 100 µM; in assay [12], > 100 µM; in [13] it was 74.5 µM.

Usually TGI stands for the concentration giving total growth inhibition. Low readings indicate greater sensitivity of the cells, high ones lower sensitivity of the cells.
